Source: article PMC12758957 (Thrombosis and Haemostasis, 2025)

What was measured:
[1] = molecular target: T1, prothrombinase-activated wild-type prothrombin (Homo sapiens, UniProt P00734); assay: Inhibition of pNAPEP-0238 peptidyl substrate conversion in a purified system; format: biochemical; conditions: wild-type thrombin, observed vs reported (ref 41)
Experimental: (§1) Prothrombin variants were activated to thrombin by prothrombinase immediately prior to analyses. Reaction mixtures of prothrombin variant (1 μM) and preassembled prothrombinase (2 nM FXa, 2 nM FV-810, and 50 μM phospholipid TGT, final concentrations) were incubated for 30 minutes at 25°C in assay buffer, upon which the reaction was quenched in dilution buffer supplemented with 50 mM EDTA.

[2] = test system: thrombin; conditions: read-out: reported IC50, peak thrombin formation; cited from earlier work
[3] = molecular target: prothrombinase-activated prothrombin-KL3; format: biochemical, human
Experimental: as §1

[4] = molecular target: T1, prothrombinase-activated wild-type prothrombin; conditions: 1 μM dabigatran
Experimental: Fibrinogen conversion was determined employing a turbidity assay. […] Turbidity was measured for 1 hour at 25°C and 350 nm.

[5] = molecular target: wild-type thrombin; conditions: read-out: reported K i, substrate conversion; cited from earlier work
[6] = test system: FXa; design: method as in PMID 28904343, PMID 38729577; conditions: S4 subsite modified FXa variants; cited from earlier work

For CC1CNc2c(cccc2S(=O)(=O)N[C@@H](CCCNC(=N)N)C(=O)N2CC[C@@H](C)C[C@@H]2C(=O)O)C1 (some centres unmarked) [Argatroban], the “lower K i value observed versus reported” value [1] was 13 fold.
For [H]/N=C(/N)c1ccc(NCc2nc3cc(C(=O)N(CCC(=O)O)c4ccccn4)ccc3n2C)cc1 [Dabigatran], the IC50 [2] is given as […], the IC50 ([3]; 5 nM prothrombinase-activated KL3, 50 μM pNAPEP-0238, read-out: IC50, pNAPEP-0238 conversion) is given as 237 ± 33 nM and the Ki ([3]; KL3, Cheng-Prusoff equation) is given as 150 nM. The “fibrinogen conversion by activated wild-type prothrombin (in words)” value [4] was “no detectable fibrinogen conversion” and the Ki [5] was 5 nM.
In the case of COc1ccc(-n2nc(C(N)=O)c3c2C(=O)N(c2ccc(N4CCCCC4=O)cc2)CC3)cc1 [apixaban], the “hindered FXa active site engagement by inhibitor” value [6] is given as ≤ 800 fold.
For O=C(NC[C@H]1CN(c2ccc(N3CCOCC3=O)cc2)C(=O)O1)c1ccc(Cl)s1 [rivaroxaban], the “hindered FXa active site engagement by inhibitor” value [6] is given as ≤ 800 fold.
